In ChEMBL document CHEMBL5506004, “Optimizing drug-like properties of selective butyrylcholinesterase inhibitors for cognitive improvement: Enhancing aqueous solubility by disrupting molecular plane” (Eur J Med Chem, 2024):
In brackets after ≈: the same amount, converted by molar mass. Activity calls are given as the source filed them. The calls are words filed in the database; no cut-off is given here.

Columns and labels:
Cholinesterase [1] = biological target: Cholinesterase (Equus caballus, UniProt P81908); experiment: Inhibition of horse serum BChE using BTC iodide as substrate preincubated for 5 mins followed by substrate addition measured after 2 mins by Ellman's method
Cholinesterase (Equus caballus, UniProt P81908), sequence (P81908 whole entry): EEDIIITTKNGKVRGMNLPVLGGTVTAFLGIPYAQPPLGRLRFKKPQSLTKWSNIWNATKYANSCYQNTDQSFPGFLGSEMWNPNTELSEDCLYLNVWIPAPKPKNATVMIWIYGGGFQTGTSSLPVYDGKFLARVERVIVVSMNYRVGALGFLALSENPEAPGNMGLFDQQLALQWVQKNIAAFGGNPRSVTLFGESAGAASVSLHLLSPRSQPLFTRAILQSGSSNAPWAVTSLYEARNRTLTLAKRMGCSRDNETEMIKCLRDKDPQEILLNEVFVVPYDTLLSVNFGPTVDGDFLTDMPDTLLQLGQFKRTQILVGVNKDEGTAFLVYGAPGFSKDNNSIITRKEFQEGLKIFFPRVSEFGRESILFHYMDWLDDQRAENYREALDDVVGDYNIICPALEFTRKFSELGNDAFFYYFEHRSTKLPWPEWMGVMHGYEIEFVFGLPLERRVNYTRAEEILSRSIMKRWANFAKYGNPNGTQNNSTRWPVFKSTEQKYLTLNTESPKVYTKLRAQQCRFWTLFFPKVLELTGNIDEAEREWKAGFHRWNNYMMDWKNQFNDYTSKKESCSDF

Cholinesterase [2] = biological target: Cholinesterase (Homo sapiens, UniProt P06276); experiment: Inhibition of human BChE using BTC iodide as substrate preincubated for 5 mins followed by substrate addition measured after 2 mins by Ellman's method
Cholinesterase (Homo sapiens, UniProt P06276), sequence (P06276 whole entry): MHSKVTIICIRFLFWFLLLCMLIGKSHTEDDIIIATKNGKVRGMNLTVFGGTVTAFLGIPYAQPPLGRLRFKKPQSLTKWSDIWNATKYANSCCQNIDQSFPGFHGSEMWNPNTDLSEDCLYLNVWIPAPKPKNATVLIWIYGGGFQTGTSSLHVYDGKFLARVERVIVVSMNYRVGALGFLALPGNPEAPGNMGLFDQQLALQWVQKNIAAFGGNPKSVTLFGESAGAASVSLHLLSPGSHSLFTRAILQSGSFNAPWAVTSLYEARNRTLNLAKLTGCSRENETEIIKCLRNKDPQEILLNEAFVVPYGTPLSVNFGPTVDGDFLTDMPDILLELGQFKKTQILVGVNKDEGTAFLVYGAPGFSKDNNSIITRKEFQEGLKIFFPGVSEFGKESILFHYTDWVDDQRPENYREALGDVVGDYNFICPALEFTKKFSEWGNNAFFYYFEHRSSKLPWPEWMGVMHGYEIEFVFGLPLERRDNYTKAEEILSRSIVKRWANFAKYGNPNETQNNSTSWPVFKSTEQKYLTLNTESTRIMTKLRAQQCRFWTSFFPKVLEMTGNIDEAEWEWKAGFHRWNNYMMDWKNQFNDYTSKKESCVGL

[3] = Solubility of compound in FaSSIF incubated for 24 hrs by HPLC analysis; assay type: ADME
BV-2 = experiment: Cytotoxicity against mouse BV-2 cells assessed as survival rate at 100 uM incubated for 24 hrs by MTT assay relative to control; assay type: functional; settings: read-out: Survival
HT-22 = experiment: Cytotoxicity against mouse HT-22 cells assessed as survival rate at 100 uM incubated for 24 hrs by MTT assay relative to control; assay type: functional; settings: read-out: Survival
[4] = Cytotoxicity against human L02 cells assessed as survival rate at 100 uM incubated for 24 hrs by MTT assay relative to control; assay type: toxicity, cell-based; settings: read-out: Survival
SH-SY5Y = experiment: Cytotoxicity against human SH-SY5Y cells assessed as survival rate incubated for 24 hrs by MTT assay; assay type: functional, cell-based
[5] = Acute toxicity in ICR mouse assessed as animal growth at 1 g/kg, IG; settings: in vivo, po, 1000 mg/kg
Cytochrome P450 1A2 = biological target: T1, Cytochrome P450 1A2 (Homo sapiens, UniProt P05177); experiment: Inhibition of CYP1A2 in human liver microsomes at 10 uM in presence of NADPH-regenerating system by LC-MS/MS analysis; assay type: ADME, Microsome
T1 sequence (P05177 whole entry): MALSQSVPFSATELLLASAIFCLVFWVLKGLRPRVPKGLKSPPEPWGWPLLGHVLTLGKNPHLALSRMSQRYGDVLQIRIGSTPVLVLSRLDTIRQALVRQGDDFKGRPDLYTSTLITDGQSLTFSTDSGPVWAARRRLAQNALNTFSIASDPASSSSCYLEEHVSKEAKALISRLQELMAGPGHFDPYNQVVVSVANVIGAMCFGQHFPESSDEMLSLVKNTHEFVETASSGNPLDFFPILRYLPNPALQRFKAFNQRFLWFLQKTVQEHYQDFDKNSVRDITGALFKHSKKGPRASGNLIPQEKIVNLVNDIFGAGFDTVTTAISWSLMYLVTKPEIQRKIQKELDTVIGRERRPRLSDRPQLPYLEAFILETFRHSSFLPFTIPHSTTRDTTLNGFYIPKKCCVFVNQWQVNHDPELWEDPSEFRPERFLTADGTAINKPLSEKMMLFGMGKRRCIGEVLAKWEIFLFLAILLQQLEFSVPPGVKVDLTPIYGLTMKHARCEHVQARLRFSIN

CYP2C9 = CYP2C9 (Homo sapiens, UniProt P11712); experiment: Inhibition of CYP2C9 in human liver microsomes at 10 uM in presence of NADPH-regenerating system by LC-MS/MS analysis relative to control; assay type: ADME, Microsome
CYP2C9, sequence (P11712 whole entry): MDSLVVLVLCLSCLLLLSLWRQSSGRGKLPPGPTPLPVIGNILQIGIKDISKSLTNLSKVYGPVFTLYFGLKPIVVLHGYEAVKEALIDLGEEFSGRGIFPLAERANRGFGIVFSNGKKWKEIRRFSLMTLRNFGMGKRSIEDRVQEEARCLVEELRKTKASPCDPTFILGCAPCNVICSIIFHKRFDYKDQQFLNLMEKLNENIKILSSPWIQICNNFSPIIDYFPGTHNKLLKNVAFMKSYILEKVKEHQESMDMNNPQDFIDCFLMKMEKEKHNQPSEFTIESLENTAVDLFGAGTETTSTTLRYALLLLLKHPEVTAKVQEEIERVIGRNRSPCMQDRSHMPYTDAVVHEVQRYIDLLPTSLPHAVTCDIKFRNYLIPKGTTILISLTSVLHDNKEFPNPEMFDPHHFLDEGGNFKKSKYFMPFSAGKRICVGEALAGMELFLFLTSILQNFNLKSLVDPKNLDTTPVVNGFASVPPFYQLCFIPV

CYP2C19 = CYP2C19 (Homo sapiens, UniProt P33261); experiment: Inhibition of CYP2C19 in human liver microsomes at 10 uM in presence of NADPH-regenerating system by LC-MS/MS analysis relative to control; assay type: ADME, Microsome
CYP2C19, sequence (P33261 whole entry): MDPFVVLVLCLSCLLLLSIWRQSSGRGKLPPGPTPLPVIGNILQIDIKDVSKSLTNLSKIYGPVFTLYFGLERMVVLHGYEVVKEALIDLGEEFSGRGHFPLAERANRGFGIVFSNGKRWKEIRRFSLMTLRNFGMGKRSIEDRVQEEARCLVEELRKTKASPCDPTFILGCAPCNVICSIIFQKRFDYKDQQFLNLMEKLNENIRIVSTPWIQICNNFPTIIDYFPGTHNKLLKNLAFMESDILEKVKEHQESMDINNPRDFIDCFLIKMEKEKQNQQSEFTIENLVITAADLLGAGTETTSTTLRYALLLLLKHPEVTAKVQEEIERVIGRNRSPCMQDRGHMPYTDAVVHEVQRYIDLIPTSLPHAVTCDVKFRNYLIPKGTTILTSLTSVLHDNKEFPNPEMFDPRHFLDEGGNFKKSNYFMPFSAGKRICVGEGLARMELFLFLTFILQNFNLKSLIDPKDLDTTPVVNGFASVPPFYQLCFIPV

CYP2D6 = CYP2D6 (Homo sapiens, UniProt P10635); experiment: Inhibition of CYP2D6 in human liver microsomes at 10 uM in presence of NADPH-regenerating system by LC-MS/MS analysis relative to control; assay type: ADME, Microsome
CYP2D6, sequence (P10635 whole entry): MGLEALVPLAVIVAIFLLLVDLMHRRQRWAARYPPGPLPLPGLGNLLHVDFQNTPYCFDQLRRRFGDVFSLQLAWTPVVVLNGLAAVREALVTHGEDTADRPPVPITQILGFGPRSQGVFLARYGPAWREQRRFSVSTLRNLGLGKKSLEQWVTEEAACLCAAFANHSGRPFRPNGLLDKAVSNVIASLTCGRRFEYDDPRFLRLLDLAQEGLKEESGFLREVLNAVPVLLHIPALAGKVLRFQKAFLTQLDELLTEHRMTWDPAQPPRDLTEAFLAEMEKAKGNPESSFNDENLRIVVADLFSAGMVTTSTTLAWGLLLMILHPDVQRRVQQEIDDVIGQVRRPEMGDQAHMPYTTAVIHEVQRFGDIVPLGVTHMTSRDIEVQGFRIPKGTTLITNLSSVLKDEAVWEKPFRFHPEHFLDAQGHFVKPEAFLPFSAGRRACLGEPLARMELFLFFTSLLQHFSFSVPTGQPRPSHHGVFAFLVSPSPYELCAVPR

Cytochrome P450 3A4/3A5 = Cytochrome P450 3A4/3A5 (Homo sapiens, UniProt P08684+P20815); experiment: Inhibition of CYP3A4/CYP3A5 in human liver microsomes at 10 uM in presence of NADPH-regenerating system by LC-MS/MS analysis; assay type: ADME, Microsome
[6] = AUC (0 to infinity) in Sprague-Dawley rat at 10 mg/kg, po measured for 1 to 1440 mins by LC-MS/MS analysis; assay type: ADME, organism-based; settings: in vivo, time 1-1440 min
[7] = MRT (infinity) in Sprague-Dawley rat at 10 mg/kg, po measured for 1 to 1440 mins by LC-MS/MS analysis; assay type: ADME, organism-based; settings: in vivo, time 1-1440 min
[8] = Tmax in Sprague-Dawley rat at 10 mg/kg, po measured for 1 to 1440 mins by LC-MS/MS analysis; assay type: ADME, organism-based; settings: in vivo, time 1-1440 min
[9] = Cmax in Sprague-Dawley rat at 10 mg/kg, po measured for 1 to 1440 mins by LC-MS/MS analysis; assay type: ADME, organism-based; settings: Sprague-Dawley, in vivo, time 1-1440 min, read-out: Cmax
[10] = AUC (0 to t) in Sprague-Dawley rat at 10 mg/kg, iv measured for 1 to 1440 mins by LC-MS/MS analysis; assay type: ADME, organism-based; settings: in vivo, time 1-1440 min
[11] = AUC (0 to infinity) in Sprague-Dawley rat at 10 mg/kg, iv measured for 1 to 1440 mins by LC-MS/MS analysis; assay type: ADME, organism-based; settings: in vivo, time 1-1440 min
[12] = MRT (infinity) in Sprague-Dawley rat at 10 mg/kg, iv measured for 1 to 1440 mins by LC-MS/MS analysis; assay type: ADME, organism-based; settings: in vivo, time 1-1440 min
[13] = Cmax in brain of ICR mouse at 10 mg/kg, po measured for 10 to 480 mins by spectroscopy; assay type: ADME, organism-based; settings: time 10-480 min
[14] = AUC (0 to t) in brain of ICR mouse at 10 mg/kg, po measured for 10 to 480 mins by spectroscopy; assay type: ADME, organism-based; settings: time 10-480 min
[15] = Cmax in plasma of ICR mouse at 10 mg/kg, po measured for 10 to 480 mins by spectroscopy; assay type: ADME, organism-based; settings: time 10-480 min
[16] = Ratio of Cmax in brain to plasma in ICR mouse at 10 mg/kg, po measured for 10 to 480 mins by spectroscopy; assay type: ADME, organism-based; settings: time 10-480 min
[17] = Ratio of AUC (0 to t) in brain to plasma in ICR mouse at 10 mg/kg, po measured for 10 to 480 mins by spectroscopy; assay type: ADME, organism-based; settings: time 10-480 min
Mus musculus [18] = experiment: Cognitive enhancing effect in Amyloid beta (1 to 42)-treated ICR mouse assessed as reduction in trajectory uncertainty at 10 mg/kg, po administered daily measured after 7 to 12 days by Morris water maze test; assay type: functional, organism-based; settings: time 7-12 day
Mus musculus [19] = experiment: Cognitive enhancing effect in Amyloid beta (1 to 42)-treated ICR mouse assessed as spontaneous decision behaviour at 10 mg/kg, po administered daily measured after 13 days by Y-maze test; assay type: functional, organism-based; settings: time 13.0 day
[20] = biological target: Amyloid-beta precursor protein (Mus musculus) (UniProt P12023); experiment: In vivo inhibition of Amyloid beta (1 to 42) self-aggregation in brain of Amyloid beta (1 to 42)-treated ICR mouse at 10 mg/kg, po administered daily for 12 days; assay type: functional, organism-based; settings: time 12.0 day
Amyloid-beta precursor protein (Mus musculus), sequence (P12023 whole entry): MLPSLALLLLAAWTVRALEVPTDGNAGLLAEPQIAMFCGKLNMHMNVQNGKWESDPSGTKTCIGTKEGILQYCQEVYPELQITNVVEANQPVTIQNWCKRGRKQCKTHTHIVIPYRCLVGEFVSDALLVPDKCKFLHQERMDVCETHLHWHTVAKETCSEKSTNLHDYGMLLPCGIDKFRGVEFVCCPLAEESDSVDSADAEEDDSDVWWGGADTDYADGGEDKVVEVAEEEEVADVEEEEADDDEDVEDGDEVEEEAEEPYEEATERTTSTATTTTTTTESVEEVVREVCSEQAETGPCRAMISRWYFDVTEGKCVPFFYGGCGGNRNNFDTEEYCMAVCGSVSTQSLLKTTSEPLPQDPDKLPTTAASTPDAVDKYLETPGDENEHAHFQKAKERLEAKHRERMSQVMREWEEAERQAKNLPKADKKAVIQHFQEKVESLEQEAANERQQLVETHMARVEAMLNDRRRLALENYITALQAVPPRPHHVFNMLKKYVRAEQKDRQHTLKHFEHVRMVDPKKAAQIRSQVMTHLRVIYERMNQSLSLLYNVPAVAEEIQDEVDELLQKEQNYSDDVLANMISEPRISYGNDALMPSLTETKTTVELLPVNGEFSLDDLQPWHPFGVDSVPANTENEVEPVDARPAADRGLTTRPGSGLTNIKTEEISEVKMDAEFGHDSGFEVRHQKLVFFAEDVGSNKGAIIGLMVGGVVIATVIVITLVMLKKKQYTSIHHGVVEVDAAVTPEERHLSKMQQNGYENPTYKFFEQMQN

Mus musculus [21] = experiment: Downregulation of Amyloid beta (1 to 42) level in brain of Amyloid beta (1 to 42)-treated ICR mouse at 10 mg/kg, po administered daily for 12 days; assay type: functional, organism-based; settings: time 12.0 day
[22] = Toxicity in Amyloid beta (1 to 42)-treated ICR mouse assessed as body weight change at 10 mg/kg, po administered daily for 12 days; assay type: organism-based; settings: in vivo, 288 h, time 12 day
[23] = Toxicity in Amyloid beta (1 to 42)-treated ICR mouse assessed as drug tolerance at 10 mg/kg, po administered daily for 12 days; assay type: organism-based; settings: in vivo, 288 h, time 12 day

Nc1nonc1-c1nc2ccccc2n1CC(=O)Nc1ccc(CCN2CCOCC2)cc1
IC50 (Cholinesterase [1]): 11.3 nM
IC50 (Cholinesterase [2]): 48.1 nM
solubility at 24 h [3]: 3.28 mM (≈ 1470 µg/mL)
viability at 100 µM (BV-2): 66.5%
viability at 100 µM (HT-22): 80.7%
viability at 24 h, 100 µM [4]: 87.1%
IC50 (SH-SY5Y): 89.8 µM
Activity [5]: Non-Toxic
inhibition (INH) (Cytochrome P450 1A2): Not Active
inhibition at 10 µM (CYP2C9): 10.9%
inhibition at 10 µM (CYP2C19): 9.19%
inhibition at 10 µM (CYP2D6): 0.89%
inhibition (INH) (Cytochrome P450 3A4/3A5): Not Active
AUC(0-inf) [6]: 1730 ng·h/mL
MRT inf [7]: 9.67 h
Tmax [8]: 23.3 min
Cmax [9]: 1060 ng/mL
AUC(0-t) [10]: 3570 ng·h/mL
AUC(0-inf) [11]: 3590 ng·h/mL
MRT inf [12]: 2.57 h
Cmax [13]: 209 ng/mL
AUC(0-t) [14]: 268 ng·h/mL
Cmax [15]: 1390 ng/mL
Kp [16]: 0.15
Kp [17]: 0.32
Activity (Mus musculus [18]): Active
Activity (Mus musculus [19]): Active
inhibition [20]: inactive
Activity (Mus musculus [21]): Active
Activity [22]: Non-Toxic
Activity [23]: Non-Toxic
